Laboratory results published in the supplement of paper PMC8671470.
± gives the standard deviation of the averaged measurements.

Tests used:
Settings in all cases: 72 h
LAMA-84 = assay: cell viability (% survival relative to DMSO control, bortezomib = 0%); higher = less cytotoxic
Summary of the method: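 Percent survival figures are means of duplicate wells. They were obtained by CellTiter-Glo luminescence after 10 AML and 5 CML cell lines spent 72 h at 37 °C with 5% CO2 in 384-well plates with compounds at 1, 10, 100, 1000 or 10000 nM. Vehicle was set to 100% and a 10 µM positive control to 0%.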

[1] = tested on: myeloid leukemia patient primary cells Pat.12; assay: cell viability (% survival relative to DMSO control); higher = less cytotoxic
Summary of the method: (§1)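 Where an area under the curve appears, it was computed with the drc and PharmacoGx R packages from log-logistic fits. Those fits used four parameters. The underlying viability data came from CellTiter-Glo after 72 h, normalised to DMSO and 10 μM proteasome-inhibitor wells, with thawed, Ficoll-purified AML or CML patient mononuclear cells at 10,000 cells/well in RPMI 1640 with 10% FBS on 384-well plates pre-printed with 70 compounds at five tenfold concentrations (1–10,000 nM) in duplicate.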

[2] = tested on: myeloid leukemia patient primary cells Pat.11; assay: as above
Summary of the method: as §1

[3] = tested on: myeloid leukemia patient primary cells Pat.15; assay: as above
Summary of the method: as §1

[4] = tested on: myeloid leukemia patient primary cells Pat.10; assay: as above
Summary of the method: as §1

[5] = tested on: myeloid leukemia patient primary cells Pat.6; assay: as above
Summary of the method: as §1

HL-60 = assay: cell viability (% survival relative to DMSO control); higher = less cytotoxic
Summary of the method: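 HL-60 cells grown in RPMI 1640 with 10% FBS were rescreened against the full library in 384-well plates, in duplicate, at five tenfold concentrations from 1 to 10,000 nM, alongside DMSO or 100 nM of one of three metabolic inhibitors for 72 h at 37 °C, 5% CO2. Reference wells contained DMSO or 10 μM proteasome inhibitor. Viability was read with CellTiter-Glo and normalised to these reference wells, and where reported, area under the curve was taken from four-parameter log-logistic fits in drc and PharmacoGx.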

[6] = tested on: myeloid leukemia patient primary cells Pat.13; assay: area under dose-response curve (viability, 1 nM-10 uM) (fraction (0-1)); higher = more sensitive
Description: (§2)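 AUC (0–1, higher = more sensitive) of the 5-point dose–response (1 nM–10 µM, 72 h, CellTiter-Glo) in primary AML/CML patient mononuclear cells. 0.030103 is the floor for inactive compounds.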

[7] = tested on: myeloid leukemia patient primary cells Pat.4; assay: as above
Description: as §2

[8] = tested on: myeloid leukemia patient primary cells Pat.5; assay: as above
Description: as §2

[9] = tested on: myeloid leukemia patient primary cells Pat.12; assay: as above
Description: as §2

[10] = tested on: myeloid leukemia patient primary cells Pat.9; assay: as above
Description: as §2

[11] = tested on: myeloid leukemia patient primary cells Pat.11; assay: as above
Description: as §2

[12] = tested on: myeloid leukemia patient primary cells Pat.15; assay: as above
Description: as §2

[13] = tested on: myeloid leukemia patient primary cells Pat.3; assay: as above
Description: as §2

[14] = tested on: myeloid leukemia patient primary cells Pat.10; assay: as above
Description: as §2

[15] = tested on: myeloid leukemia patient primary cells Pat.2; assay: as above
Description: as §2

[16] = tested on: myeloid leukemia patient primary cells Pat.1; assay: as above
Description: as §2

[17] = tested on: myeloid leukemia patient primary cells Pat.7; assay: as above
Description: as §2

[18] = tested on: myeloid leukemia patient primary cells Pat.6; assay: as above
Description: as §2

[19] = tested on: myeloid leukemia patient primary cells Pat.14; assay: as above
Description: as §2

[20] = tested on: myeloid leukemia patient primary cells Pat.8; assay: as above
Description: as §2

C[C@H](NC(=O)c1sccc1OCc1ccc(Cl)cc1)c1ccccc1
cell viability [%]
Settings	LAMA-84	[1]	[2]	[3]	[4]	[5]
1 nM	94.2	90	93	92.7	81.9	> 100
10 nM	100	98.4	> 100	95.6	67.4	98.1
100 nM	94	91.8	> 100	97.7	73.5	99.6
1000 nM	98.9	> 100	97.6	92.2	80.2	91.5
10000 nM	65.4	63.8	> 100	81.3	< 0	35.7

cell viability [%], HL-60
Settings	0.001 µM	0.01 µM	0.1 µM	1 µM	10 µM
co-treatment: AZD3965 100 nM	70.8 ± 40	87.5 ± 22	99.14 ± 0.31	103 ± 2.7	92.2 ± 10
co-treatment: DMSO vehicle	99.5 ± 2	98.9 ± 1.4	96.69 ± 0.35	104 ± 5.2	97.6 ± 3.9
co-treatment: GSK2194069 100 nM	83.9 ± 16	89.91 ± 0.16	98.7 ± 8.9	74.5 ± 30	92.5 ± 3.7
co-treatment: pictilisib 100 nM	90.8 ± 4.3	95.7 ± 6.5	94.9 ± 13	95.2 ± 7.4	108 ± 2.9

Settings	area under dose-response curve
[6]	0.0406
[7]	0.0955
[8]	0.338
[9]	< 0.0301
[10]	0.195
[11]	< 0.0301
[12]	< 0.0301
[13]	0.124
[14]	0.13
[15]	0.0349
[16]	0.0329
[17]	0.253
[18]	0.0893
[19]	0.121
[20]	< 0.0301

O=C1c2cc([N+](=O)[O-])ccc2-n2c1nc1ccccc1c2=O [GNF-Pf-3777]
cell viability [%]
Settings	LAMA-84	[1]	[2]	[3]	[4]	[5]
1 nM	97.5	98	> 100	90.6	61.7	> 100
10 nM	102	96.3	97.9	89.1	47.7	98.8
100 nM	96.1	99.1	94	96.8	77.9	98.6
1000 nM	71.3	99.3	86.8	87.9	36.6	94.3
10000 nM	32.8	78.6	64.4	40.2	15.5	66.8

cell viability [%], HL-60
Settings	0.001 µM	0.01 µM	0.1 µM	1 µM	10 µM
co-treatment: AZD3965 100 nM	103 ± 4.7	100 ± 1.4	105 ± 0.55	89 ± 6	2.3 ± 0.41
co-treatment: DMSO vehicle	94.3 ± 0.29	102 ± 5.9	103 ± 3.4	91.6 ± 6	12.6 ± 4.2
co-treatment: GSK2194069 100 nM	103 ± 6	98.4 ± 12	88.8 ± 4	80.8 ± 10	8.8 ± 9.7
co-treatment: pictilisib 100 nM	95.5 ± 2.2	101.2 ± 0.8	92.2 ± 6.2	78.63 ± 0.57	6.29 ± 5.4

Settings	area under dose-response curve
[6]	0.115
[7]	0.14
[8]	0.292
[9]	< 0.0301
[10]	0.158
[12]	0.0672
[13]	0.265
[14]	0.27
[15]	0.0426
[17]	0.0749
[18]	0.0546
[19]	0.071

CC[C@@]1(O)C(=O)OCc2c1cc1n(c2=O)Cc2cc3c(CN(C)C)c(O)ccc3nc2-1 [Topotecan]
cell viability [%]
Settings	LAMA-84	[1]	[2]	[3]	[4]	[5]
1 nM	93.6	95.3	99.8	95.4	84.6	> 100
10 nM	97.4	97	97.2	89.4	88.3	97.4
100 nM	29.2	92.1	92.4	83.5	35.4	94.6
1000 nM	1.78	93.5	76.2	54.8	6.65	75.1
10000 nM	0.506	48.3	53.3	0.856	1.3	32.5

cell viability [%], HL-60
Settings	0.001 µM	0.01 µM	0.1 µM	1 µM	10 µM
co-treatment: AZD3965 100 nM	99.6 ± 2.4	98.4 ± 3.9	7.08 ± 1.3	3.55 ± 0.35	2.51 ± 0.3
co-treatment: DMSO vehicle	101 ± 3.4	103 ± 4.6	11.5 ± 1.8	5.98 ± 0.24	2.79 ± 1.4
co-treatment: GSK2194069 100 nM	91.07 ± 0.23	111 ± 3.9	10.4 ± 2.5	6.25 ± 0.94	3.68 ± 0.34
co-treatment: pictilisib 100 nM	102 ± 5.5	98 ± 16	9.22 ± 2.9	5.76 ± 3	3.31 ± 0.0069

Settings	area under dose-response curve
[6]	0.0753
[7]	0.132
[8]	0.426
[9]	0.0406
[10]	0.245
[11]	0.0826
[12]	0.225
[13]	0.54
[14]	0.507
[15]	0.127
[16]	0.0609
[17]	0.282
[18]	0.147
[19]	0.231
[20]	0.0586
